Data taken from patent US8216783B2, “Over-expression and mutation of a tyrosine kinase receptor FGFR4 in tumors” (The United States of America, as represented by the …, priority 2008, dated 2012).
“Also recorded” adds a separate entry of the source. Where two headings read alike, the source gives them in different places.

What was measured:
RH30 TRB H11.5 cells = assay: In vitro growth of RH30 TRB H11.5 cells with or without dox; assay type: cell-based, human; details: RH30 TRB H11.5, 25 nM dox, 13 days, P=0.0021
Experimental: FIG. 13B is a plot of RH30 TRB H11.5 cell growth with or without 25 nM dox for 120 hours.
FIG. 13C is a plot of RH30TRB H11.5 cell number 13 days after treatment with or without 25 nM dox.
Human rhabdomyosarcoma cell line RH30 was retrovirally transduced with vectors containing tetracycline repressor protein and ecotropic receptor. A tetracycline inducible shRNA construct targeting FGFR4 ([…], SEQ ID NO: 44) was used to transduce these RH30 cells as described previously (Ngo et al. Nature 441:106-110, 2006). Transduced RH30 cells were then subcloned. The subclone with the highest FGFR4 knockdown in the presence of doxycycline (dox) was used for in vitro and in vivo studies. The subclone chosen was designated as RH30 TRB H11.5 and was further transduced with a retroviral vector encoding luciferase. RH30 TRB H11.5 cells treated with or without 25 ng/ml doxycycline for 48 hours were harvested for Western blot for FGFR4 expression.

[1] = system: RMS772 cells expressing FGFR4 N535K or V550E; assay: Relative cell number of RMS772 transductants treated with imatinib; assay type: cell-based, mouse; details: 10 μM, 24 hours
Experimental: To determine the sensitivity of FGFR4 mutants (N535K and V550E) to imatinib, RMS772 transductants were treated with imatinib (ranging from 0 μM to 40 μM). After 24 hours, relative cell number (normalized with control) was plotted against imatinib dose.

RD = assay: IC50 of PD173074 for killing human RMS cell lines (RT-CES cell growth monitoring); assay type: cell-based; details: RD cell line
Experimental: (§1) Briefly human RMS cell lines were seeded in the 96 well plate device at 5000-20,000 cells per well. […] Cell growth was monitored and IC50 values were calculated by Cell Office® (ACEA Biosciences, San Diego, Calif.).
(§2) Expression level of FGFR4 mRNA for each cell line was determined by real-time PCR (FIG. 10).

RH28 = assay: as above; assay type: cell-based; details: RH28 cell line
Experimental: as §1, §2

RH30 = assay: as above; assay type: cell-based; details: RH30 cell line
Experimental: as §1, §2

RH36 = assay: as above; assay type: cell-based; details: RH36 cell line
Experimental: as §1, §2

RH41 = assay: as above; assay type: cell-based; details: RH41 cell line
Experimental: as §1, §2

[2] = system: RMS772 cells expressing vector only; assay: Percent cell survival of transduced RMS772 cell lines with PD173074; assay type: cell-based; details: Mus musculus; RMS772 vector control, 48 hours of treatment
[3] = system: RMS772 cells expressing wild type FGFR4; assay: as above; assay type: cell-based; details: Mus musculus; RMS772 wild type FGFR4, 48 hours of treatment
[4] = system: RMS772 cells expressing FGFR4 N535K (K535); assay: as above; assay type: cell-based; details: Mus musculus; RMS772 K535, 48 hours of treatment
[5] = system: RMS772 cells expressing FGFR4 V550E (E550); assay: as above; assay type: cell-based; details: Mus musculus; RMS772 E550, 48 hours of treatment
[6] = system: RMS119 cells expressing FGFR4 N535K or V550E; assay: Cell cycle assay (BrdU/7-AAD flow cytometry), apoptosis as subG1 fraction; assay type: cell-based, mouse; details: 5 uM for 24 hours
Experimental: (§3) The effect of […] in RMS119 and RMS772 transfectants was determined using cell cycle assays. […] Cells were then pulsed with BrdU for 40 minutes, and then fixed, permeabilized, and treated with DNase, and followed by staining with mAb (BD Biosciences, Franklin Lakes, N.J.) against BrdU and with 7-AAD (BD Biosciences, Franklin Lakes, N.J.) respectively. Flow cytometry was used to analyze the cell cycle parameters.
(§4) Apoptosis was assessed by determining the fraction of cells in the subG1 stage of the cell cycle. There were no differences in cell cycle parameters of RMS772 cells expressing TK domain mutants cultured in medium containing 10% FBS compared to vector or wild type FGFR4 (FIG. 9A).

[7] = system: RMS772 cells expressing FGFR4 TK domain mutations N535K or V550E; assay: as above; assay type: cell-based, mouse; details: 5 uM for 24 hours
Experimental: as §3, §4

[8] = system: RMS772 cells expressing FGFR4 N535K (K535) or V550E (E550); assay: Activated caspase 3 positive cells in RMS772 transductants; assay type: cell-based, mouse; details: both mutant RMS772 cell lines, 20 μM, 24 hour treatment
[9] = 24 hours, read-out: IC50 for killing, 24 hours
[10] = 48 hours, read-out: IC50 for killing, 48 hours
[11] = 72 hours, read-out: IC50 for killing, 72 hours

For C[C@H]1c2cccc(O)c2C(=O)C2=C(O)[C@]3(O)C(=O)C(C(N)=O)=C(O)[C@@H](N(C)C)[C@@H]3[C@@H](O)[C@@H]21 [dox, doxycycline], the “reduction in growth after prolonged culture” value (RH30 TRB H11.5 cells) was 41%.

In the case of Cc1ccc(NC(=O)c2ccc(CN3CCN(C)CC3)cc2)cc1Nc1nccc(-c2cccnc2)n1 [imatinib, 4-[(4-methylpiperazin-1-yl)methyl]-N-[4-methyl-3-[(4-pyridin-3-ylpyrimidin-2-yl)amino]-phenyl]-benzamide], the “sensitivity (relative cell number) of FGFR4 mutants versus wild type FGFR4 or control cells” value [1] is reported as “more sensitive”.

Work on CCN(CC)CCCCNc1ncc2cc(-c3cc(OC)cc(OC)c3)c(NC(=O)NC(C)(C)C)nc2n1 [PD173074] yielded an IC50 (RD; [9]) of 57.1 µM, an IC50 (RD; [10]) of 29.7 µM and an IC50 (RD; [11]) of 20.2 µM. The IC50 (RH28; [9]) was 2.22 µM, the IC50 (RH28; [10]) was 0.66 µM and the IC50 (RH28; [11]) was 0.5 µM. The IC50 (RH30; [9]) was 10 µM, the IC50 (RH30; [10]) was 8.32 µM and the IC50 (RH30; [11]) was 8.11 µM. It also gave an IC50 (RH36; [9]) of 25.9 µM, an IC50 (RH36; [10]) of 17.6 µM and an IC50 (RH36; [11]) of 20.2 µM. For the same compound, the IC50 (RH41; [9]) was 2.55 µM, the IC50 (RH41; [10]) was 0.96 µM and the IC50 (RH41; [11]) was 0.76 µM. The IC50 [2] was 12.7 µM, the IC50 [3] was 11.8 µM and the IC50 [4] was 8.2 µM. For the same compound, the IC50 [5] was 5.9 µM, the “apoptosis / cell cycle effect of treatment” value [6] was “not affected” and the “apoptosis (SubG1 fraction) compared with cells transfected with vector or wild type FGFR4” value [7] was “increase in apoptosis; also recorded: increased SubG1 fraction”. For the same compound, the “activated caspase 3 (cells positive, normalized to vector only)” value [8] was “increased activated caspase 3”.
